Results published in patent US20230019491A1, “PYRIMIDINE TBK/IKKe INHIBITOR COMPOUNDS AND USES THEREOF” (Merck Patent GmbH, priority 2017, published 2023).
Like-named read-outs stand apart in the source and are kept apart here.

Assays:
TBK1 = molecular target: T1, TBK1 (Homo sapiens, UniProt Q9UHD2); experiment: TBK biochemical assay
T1 sequence (Q9UHD2 1-729): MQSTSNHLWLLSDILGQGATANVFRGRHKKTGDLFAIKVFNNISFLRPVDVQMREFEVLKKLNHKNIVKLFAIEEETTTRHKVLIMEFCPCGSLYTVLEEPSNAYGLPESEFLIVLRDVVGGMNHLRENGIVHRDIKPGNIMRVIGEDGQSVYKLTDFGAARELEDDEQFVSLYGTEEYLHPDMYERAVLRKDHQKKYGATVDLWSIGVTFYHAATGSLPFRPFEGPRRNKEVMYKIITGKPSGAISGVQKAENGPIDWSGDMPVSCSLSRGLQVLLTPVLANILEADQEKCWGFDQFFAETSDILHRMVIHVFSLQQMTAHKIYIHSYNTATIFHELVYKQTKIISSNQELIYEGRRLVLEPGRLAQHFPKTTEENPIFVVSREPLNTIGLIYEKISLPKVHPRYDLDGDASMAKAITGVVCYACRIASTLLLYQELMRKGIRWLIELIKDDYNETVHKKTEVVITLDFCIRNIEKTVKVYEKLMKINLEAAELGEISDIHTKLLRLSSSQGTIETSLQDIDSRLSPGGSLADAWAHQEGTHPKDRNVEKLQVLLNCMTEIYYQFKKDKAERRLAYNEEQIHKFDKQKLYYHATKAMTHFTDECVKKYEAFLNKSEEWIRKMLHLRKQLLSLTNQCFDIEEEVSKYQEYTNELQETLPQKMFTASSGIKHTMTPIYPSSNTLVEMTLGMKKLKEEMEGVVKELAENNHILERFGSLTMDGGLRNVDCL
Outline: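 Read-out was a Caliper LabChip mobility-shift assay, run after a 90-min, 25 °C reaction of TBK1 with substrate and compounds, quenched with stop buffer. Control wells received staurosporine at 10 uM final.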

IKKε = molecular target: T2, IKKε (Homo sapiens, UniProt Q14164); experiment: IKKε biochemical assay; settings: 30 uM top concentration, 90 min at 25° C., LabChip EZ Reader II
T2 sequence (Q14164 1-716): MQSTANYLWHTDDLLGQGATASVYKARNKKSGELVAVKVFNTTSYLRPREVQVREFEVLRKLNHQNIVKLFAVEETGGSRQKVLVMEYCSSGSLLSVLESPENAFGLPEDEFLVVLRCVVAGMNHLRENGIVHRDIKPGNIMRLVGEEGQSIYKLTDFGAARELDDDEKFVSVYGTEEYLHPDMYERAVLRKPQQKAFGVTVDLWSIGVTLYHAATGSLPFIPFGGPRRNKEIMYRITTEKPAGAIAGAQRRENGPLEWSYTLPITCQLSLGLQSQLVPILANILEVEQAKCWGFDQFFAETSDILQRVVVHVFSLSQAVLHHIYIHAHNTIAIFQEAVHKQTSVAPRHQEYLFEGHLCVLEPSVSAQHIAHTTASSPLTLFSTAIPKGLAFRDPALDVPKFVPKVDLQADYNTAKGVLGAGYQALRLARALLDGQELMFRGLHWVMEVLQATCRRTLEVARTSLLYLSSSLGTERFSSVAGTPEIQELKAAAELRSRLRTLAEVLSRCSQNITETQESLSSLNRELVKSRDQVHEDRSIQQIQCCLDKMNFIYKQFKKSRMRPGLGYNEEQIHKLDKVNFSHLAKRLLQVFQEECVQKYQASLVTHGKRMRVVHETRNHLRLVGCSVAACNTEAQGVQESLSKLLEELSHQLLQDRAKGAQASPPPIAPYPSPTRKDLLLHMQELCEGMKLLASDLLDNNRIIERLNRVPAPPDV
Outline: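 Mobility-shift LabChip read-out followed a 90 min, 25° C. reaction of IKKε with substrate and test compound, with DMSO held at 1% final. Reactions were ended with stop buffer. Wells with 10 uM final staurosporine defined complete inhibition, and DMSO-only wells the uninhibited level.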

[1] = 10 point 1:4 dose response, 30 uM top concentration, 90 min at 25° C., LabChip EZ Reader II, read-out: TBK1_IC50
[2] = 10 point 1:4 dose response, read-out: IKKε_IC50

SMILES: COc1nc(Nc2nccc(-c3cc(C#N)c(OC4CCOCC4)cn3)n2)ccc1C1CCN(C)CC1 [Example 45, 2-(2-[[6-methoxy-5-(1-methylpiperidin-4-yl)pyridin-2-yl]amino]pyrimidin-4-yl)-5-(oxan-4-yloxy)pyridine-4-carbonitrile]
- IC50 (TBK1; [1]): > 5000 nM
- IC50 (IKKε; [2]): 1000 to 5000 nM

SMILES: COc1nc(Nc2nccc(-c3ccc(OC4(C)CCN(C(=O)[C@@H](O)CO)CC4(F)F)c(C#N)c3)n2)ccc1N1CCN(C2COC2)CC1 (stereo partly drawn) [Example 264, 2-[1-((S)-2,3-Dihydroxy-propionyl)-3,3-difluoro-4-methyl-piperidin-4-yloxy]-5-{2-[6-methoxy-5-(4-oxetan-3-yl-piperazin-1-yl)-pyridin-2-ylamino]-pyrimidin-4-yl}-benzonitrile]
- IC50 (TBK1; [1]): < 100 nM
- IC50 (IKKε; [2]): < 100 nM

SMILES: COc1nc(Nc2nccc(-c3ccc(O[C@@H]4CCN(C(=O)[C@@H](C)O)C[C@@H]4F)c(C#N)c3)n2)ccc1N1CCN(C2COC2)CC1 [Example 117, 2-[(3S,4R)-3-Fluoro-1-((R)-2-hydroxy-propionyl)-piperidin-4-yloxy]-5-{2-[6-methoxy-5-(4-oxetan-3-yl-piperazin-1-yl)-pyridin-2-ylamino]-pyrimidin-4-yl}-benzonitrile]
- IC50 (TBK1; [1]): < 100 nM
- IC50 (IKKε; [2]): < 100 nM

SMILES: COc1nc(Nc2nccc(-c3ccc(OC4CCN(C(=O)C(C)(C)O)CC4(F)F)c(C#N)c3)n2)ccc1N1CCN(C)C[C@H]1C (stereo partly drawn) [Example 114, 2-[3,3-Difluoro-1-(2-hydroxy-2-methyl-propionyl)-piperidin-4-yloxy]-5-{2-[5-((R)-2,4-dimethyl-piperazin-1-yl)-6-methoxy-pyridin-2-ylamino]-pyrimidin-4-yl}-benzonitrile]
- IC50 (TBK1; [1]): < 100 nM
- IC50 (IKKε; [2]): < 100 nM

SMILES: COc1cc(Nc2nccc(-c3ccc(OC4CCOCC4)c(C#N)c3)n2)ncc1C(=O)N(C)C [Example 49, 6-([4-[3-cyano-4-(oxan-4-yloxy)phenyl]pyrimidin-2-yl]amino)-4-methoxy-N,N-dimethylpyridine-3-carboxamide]
- IC50 (TBK1; [1]): 100 to 1000 nM
- IC50 (IKKε; [2]): 100 to 1000 nM

SMILES: Cc1cc(N2CCN(C3COC3)CC2)ccc1Nc1nccc(-c2ccc(OC3CCN(C(=O)[C@H](C)O)CC3(F)F)c(C#N)c2)n1 (stereo partly drawn) [Example 310, 2-([3,3-difluoro-1-[(2S)-2-hydroxypropanoyl]piperidin-4-yl]oxy)-5-[2-([2-methyl-4-[4-(oxetan-3-yl)piperazin-1-yl]phenyl]amino)pyrimidin-4-yl]benzonitrile]
- IC50 (TBK1; [1]): < 100 nM
- IC50 (IKKε; [2]): < 100 nM

SMILES: C[C@H](O)C(=O)N1CCC(Oc2ccc(-c3ccnc(Nc4ccc(N5CCN(C6COC6)CC5)cc4)n3)nc2C#N)C(F)(F)C1 (stereo partly drawn) [Example 306, 3-([33-difluoro-1-[(2S)-2-hydroxypropanoyl]piperidin-4-yl]oxy)-6-[2-([4-[4-(oxetan-3-yl)piperazin-1-yl]phenyl]amino)pyrimidin-4-yl]pyridine-2-carbonitrile]
- IC50 (TBK1; [1]): < 100 nM
- IC50 (IKKε; [2]): < 100 nM

SMILES: COc1cccc(Nc2nccc(-c3ccc(O[C@@H]4CCN(C(=O)[C@H](C)O)CC4(F)F)c(C#N)c3)n2)n1 [Example 241, 2-[[(4R)-3,3-difluoro-1-[(2S)-2-hydroxypropanoyl]piperidin-4-yl]oxy]-5-[2-[(6-methoxypyridin-2-yl)amino]pyrimidin-4-yl]benzonitrile]
- IC50 (TBK1; [1]): < 100 nM
- IC50 (IKKε; [2]): < 100 nM

SMILES: COc1nc(Nc2nccc(-c3ccc(O[C@H]4CCN(C(=O)[C@H](C)O)CC4(F)F)c(C#N)c3)n2)ccc1N1CCN(C2COC2)CC1 [Example 120, 2-([3,3-difluoro-1-[(2S)-2-hydroxypropanoyl]piperidin-4-yl]oxy)-5-[2-([6-methoxy-5-[4-(oxetan-3-yl)piperazin-1-yl]pyridin-2-yl]amino)pyrimidin-4-yl]benzonitrile]
- IC50 (TBK1; [1]): < 100 nM
- IC50 (IKKε; [2]): < 100 nM

SMILES: COc1nc(Nc2nccc(-c3ccc(OC4CN(C)C4)c(C#N)c3)n2)ccc1N1CCN(C)CC1 [Example 86, 5-(2-[[6-methoxy-5-(4-methylpiperazin-1-yl)pyridin-2-yl]amino]pyrimidin-4-yl)-2-[(1-methylazetidin-3-yl)oxy]benzonitrile]
- IC50 (TBK1; [1]): 100 to 1000 nM
- IC50 (IKKε; [2]): 100 to 1000 nM

SMILES: COc1nc(Nc2nccc(-c3ccc(O[C@H]4CCN(C(=O)[C@H](C)O)C[C@@H]4F)c(C#N)c3)n2)ccc1C1CCN(C2COC2)CC1 [Example 189, 2-[(3S,4S)-3-Fluoro-1-((S)-2-hydroxy-propionyl)-piperidin-4-yloxy]-5-[2-(2-methoxy-1′-oxetan-3-yl-1′,2′,3′,4′,5′,6′-hexahydro-[3,4′]bipyridinyl-6-ylamino)-pyrimidin-4-yl]-benzonitrile]
- IC50 (TBK1; [1]): < 100 nM
- IC50 (IKKε; [2]): < 100 nM

SMILES: N#Cc1cc(-c2ccnc(Nc3ccccc3)n2)ccc1OC1CCN(C(=O)[C@@H](O)CO)CC1(F)F (stereo partly drawn) [Example 210, 2-[1-((S)-2,3-Dihydroxy-propionyl)-3,3-difluoro-piperidin-4-yloxy]-5-(2-phenylamino-pyrimidin-4-yl)-benzonitrile]
- IC50 (TBK1; [1]): < 100 nM
- IC50 (IKKε; [2]): < 100 nM

SMILES: COc1cc(Nc2nccc(-c3cc(C#N)c(OC4CCOCC4)cn3)n2)cnc1C(=O)N(C)C [Example 52, 5-([4-[4-cyano-5-(oxan-4-yloxy)pyridin-2-yl]pyrimidin-2-yl]amino)-3-methoxy-N,N-dimethylpyridine-2-carboxamide]
- IC50 (TBK1; [1]): 1000 to 5000 nM
- IC50 (IKKε; [2]): 1000 to 5000 nM

SMILES: COc1nc(Nc2nccc(-c3ccc(OC4CCOCC4)c(C#N)c3)n2)ccc1C(=O)N1CC2CC(C1)O2 [Example 7, 5-(2-[[6-methoxy-5-([6-oxa-3-azabicyclo[3.1.1]heptan-3-yl]carbonyl)pyridin-2-yl]amino]pyrimidin-4-yl)-2-(oxan-4-yloxy)benzonitrile]
- IC50 (TBK1): < 100 nM
- IC50 (IKKε; IKKε_IC50, 10 point 1:4 dose response): < 100 nM

SMILES: COc1nc(Nc2nccc(-c3ccc(OC4CCNCC4(F)F)c(C#N)c3)n2)ccc1N1CCN(C)C[C@H]1C (stereo partly drawn) [Example 108, 2-(3,3-Difluoro-piperidin-4-yloxy)-5-{2-[5-((R)-2,4-dimethyl-piperazin-1-yl)-6-methoxy-pyridin-2-ylamino]-pyrimidin-4-yl}-benzonitrile]
- IC50 (TBK1; [1]): < 100 nM
- IC50 (IKKε; [2]): < 100 nM

SMILES: COc1nc(Nc2nccc(-c3ccc(OC4CCN(C(=O)[C@H](C)O)CC4(F)F)c(C#N)c3)n2)ccc1N1CCN(C2COC2)[C@H](C)C1 (stereo partly drawn) [Example 128, 2-[3,3-Difluoro-1-((S)-2-hydroxy-propionyl)-piperidin-4-yloxy]-5-{2-[6-methoxy-5-((R)-3-methyl-4-oxetan-3-yl-piperazin-1-yl)-pyridin-2-ylamino]-pyrimidin-4-yl}-benzonitrile]
- IC50 (TBK1; [1]): < 100 nM
- IC50 (IKKε; [2]): < 100 nM

SMILES: COc1nc(Nc2nccc(-c3ccc(OC4CCOCC4)c(C#N)c3)n2)ccc1C(=O)N1CC2CCC(C1)O2 [Example 10, 5-(2-[[6-methoxy-5-([8-oxa-3-azabicyclo[3.2.1]octan-3-yl]carbonyl)pyridin-2-yl]amino]pyrimidin-4-yl)-2-(oxan-4-yloxy)benzonitrile]
- IC50 (TBK1; [1]): < 100 nM
- IC50 (IKKε; [2]): < 100 nM

SMILES: COc1nc(Nc2ncc(F)c(-c3ccc(OC4CCN(C(=O)C(C)O)CC4(F)F)c(C#N)c3)n2)ccc1C1CCN(C2COC2)CC1 (stereo not drawn) [Example 294, 2-{[33-difluoro-1-(2-hydroxypropanoyl)piperidin-4-yl]oxy}-5-[5-fluoro-2-({6-methoxy-5-[1-(oxetan-3-yl)piperidin-4-yl]pyridin-2-yl}amino)pyrimidin-4-yl]benzonitrile]
- IC50 (TBK1; [1]): < 100 nM
- IC50 (IKKε; [2]): < 100 nM
